Experimental data taken from patent publication US12194084B2 (priority 2019, dated 2025).

Tested on: CD1b-restricted MA-specific TCR transgenic DN1 T cells
Assay type: cell-based, mouse

**Q.** With mycolic acid [MA] as the substance, how does the “IFN-γ production by DN1 T cells to MA-pulsed DC (ELISPOT)” value read?
**A.** produced IFN-γ

**Q.** What about the “activation of DN1 T cells (CD69, CD25, IFN-γ)” value of the same substance?
**A.** able to activate DN1 T cells
